Patent publication US9951079B2, “Fused tricyclic heterocyclic compounds as HIV integrase inhibitors” (MERCK SHARP & DOHME CORP., priority 2013, dated 2018)
Where two headings read alike, the source gives them in different places.

System: HIV-1 (NL4-3 strain)
Test: Assay for inhibition of HIV replication (MT4-gag-GFP reporter cell line, kinetic assay)
Type: cell-based
Description: This assay is a kinetic assay that employs a reporter cell line (MT4-gag-GFP) to quantify the number of new cells infected in each round of replication.
MT4-GFP cells (250,000 cells/ml) were bulk-infected with HIV-1 (NL4-3 strain) at low multiplicity of infection (MOI) in RPMI+10% FBS for 24 hours. Cells were then washed once in RPMI+10% FBS and resuspended in RPMI+0% or 10% or 100% normal human serum (NHS). Test compounds were serial-diluted in DMSO on ECHO. The infected MT4-GFP cells were added to a 384-well poly-D-lysine coated black plate with clear bottom in which the diluted test compounds were placed. The cells were seeded at 8,000 cells per well and the final DMSO concentration was 0.4%. The infected cells (Green GFP cells) were quantified at both 24 and 48 hours post incubation using Acumen eX3. Viral reproductive ratio (R0) was determined using the number of infected cells at 48 hours divided by the number of infected cells at 24 hours. Percent viral growth inhibition was calculated by [1−(R−Rtripledrug)/(RDMSO−Rtripledrug)]*100. Compound potency IP or IC50 was determined by a 4-parameter dose response curve analysis.

[1] = Human immunodeficiency virus 1, NL43, Table A, infected MT4-GFP cells, RPMI + 0% normal human serum, IP from 4-parameter dose response curve, read-out: Wild Type Cell Assay IP (0% NHS)
[2] = Human immunodeficiency virus 1, NL43, Table A, infected MT4-GFP cells, RPMI + 10% normal human serum, read-out: Wild Type Cell Assay IP (10% NHS)
[3] = Human immunodeficiency virus 1, NL43, Table B (selected enantiomeric compounds), 0% normal human serum, read-out: Wild Type Cell Assay IP (0% NHS)
[4] = Table A, infected MT4-GFP cells, RPMI + 10% normal human serum, read-out: Wild Type Cell Assay IP (10% NHS)
[5] = Table B (selected enantiomeric compounds), 100% normal human serum, read-out: Wild Type Cell Assay IP (100% NHS)
[6] = Table B (selected enantiomeric compounds), 0% normal human serum, read-out: Wild Type Cell Assay IP (0% NHS)

Row | SMILES | IC50 [1] [µM] | IC50 [2] [µM] | also measured
1 | CCN1C(=O)c2c(O)c(=O)c(-c3nnc(Cc4ccc(F)cc4)s3)cn2C2COC[C@@H]21 (mixture of isomers) [Compound 7] | 0.036 | 0.074 | 
2 | COCCN1C(=O)c2c(O)c(=O)c(-c3nnc(Cc4ccc(F)cc4F)s3)cn2C2COC[C@@H]21 (mixture of isomers) [Compound 8] | 0.006 | 0.013 | 
3 | CCCN1C(=O)c2c(O)c(=O)c(-c3nnc(Cc4ccc(F)cc4)s3)cn2C2COC[C@@H]21 (mixture of isomers) [Compound 9] | 0.01 | 0.032 | 
4 | CCC(c1nnc(-c2cn3c(c(O)c2=O)C(=O)N(CC)[C@H]2COCC23)s1)c1ccc(F)cc1F (mixture of isomers) [Compound 6] | 0.031 | 0.067 | 
5 | CC(C)N1C(=O)c2c(O)c(=O)c(C(=O)NCc3ccc(F)cc3F)cn2C2COC[C@@H]21 (mixture of isomers) [Compound 12] | 0.003 | 0.062 | 
6 | O=C1N[C@@H]2COC[C@H]2n2cc(-c3nnc(Cc4ccc(F)cc4F)s3)c(=O)c(O)c21 (relative stereo) [Compound 2, trans-8-(5-(2,4-difluorobenzyl)-1,3,4-thiadiazol-2-yl)-6-hydroxy-3a,4-dihydro-1H-furo[3,4-e]pyrido[1,2-a]pyrazine-5,7(3H,10aH)-dione] |  | 0.385 | 
7 | CCN1C(=O)c2c(O)c(=O)c(-c3nnc(Cc4ccc(F)cc4F)s3)cn2[C@@H]2COC[C@H]21 (relative stereo) [Compound 3, trans-8-(5-(2,4-difluorobenzyl)-1,3,4-thiadiazol-2-yl)-4-ethyl-6-hydroxy-3a,4-dihydro-1H-furo[3,4-e]pyrido[1,2-a]pyrazine-5,7(3H,10aH)-dione] |  | 0.058 | 
8 | CCN1C(=O)c2c(O)c(=O)c(-c3cnn(Cc4ccc(F)cc4F)c3)cn2[C@@H]2COC[C@@H]21 (relative stereo) [Compound 14, cis-8-(1-(2,4-difluorobenzyl)-1H-pyrazol-4-yl)-4-ethyl-6-hydroxy-3a,4-dihydro-1H-furo[3,4-e]pyrido[1,2-a]pyrazine-5,7(3H,10aH)-dione] | 0.051 | 0.252 | 
9 | CCN1C(=O)c2c(O)c(=O)c(-c3nnc(Cc4ccc(F)cc4F)s3)cn2C2COC[C@@H]21 (single isomer, unassigned) [Compound 4, cis-8-(5-(2,4-difluorobenzyl)-1,3,4-thiadiazol-2-yl)-4-ethyl-6-hydroxy-3a,4-dihydro-1H-furo[3,4-e]pyrido[1,2-a]pyrazine-5,7(3H,10aH)-dione] |  |  | IC50 [3]: 0.008 µM; IC50 [4]: 0.017 µM; IC50 [5]: 0.19 µM
10 | CCN1C(=O)c2c(O)c(=O)c(-c3nnc(Cc4ccc(F)cc4F)s3)cn2C2COC[C@@H]21 (single isomer, unassigned) [Compound 5, cis-8-(5-(2,4-difluorobenzyl)-1,3,4-thiadiazol-2-yl)-4-ethyl-6-hydroxy-3a,4-dihydro-1H-furo[3,4-e]pyrido[1,2-a]pyrazine-5,7(3H,10aH)-dione] | 0.009 |  | IC50 [4]: 0.561 µM; IC50 [5]: 5.7 µM
11 | CCN1C(=O)c2c(O)c(=O)c(C(=O)NCc3ccc(F)cc3F)cn2C2COC[C@@H]21 (single isomer, unassigned) [Compound 10, cis-N-(2,4-difluorobenzyl)-4-ethyl-6-hydroxy-5,7-dioxo-3,3a,4,5,7,10a-hexahydro-1H-furo[3,4-e]pyrido[1,2-a]pyrazine-8-carboxamide] | 0.004 |  | IC50 [4]: 0.008 µM; IC50 [6]: 0.08 µM; IC50 [5]: 0.071 µM
12 | CCN1C(=O)c2c(O)c(=O)c(C(=O)NCc3ccc(F)cc3F)cn2C2COC[C@@H]21 (single isomer, unassigned) [Compound 11, cis-N-(2,4-difluorobenzyl)-4-ethyl-6-hydroxy-5,7-dioxo-3,3a,4,5,7,10a-hexahydro-1H-furo[3,4-e]pyrido[1,2-a]pyrazine-8-carboxamide] |  |  | IC50 (Table A, infected MT4-GFP cells, RPMI + 0% normal human serum, IP from 4-parameter dose response curve, read-out: Wild Type Cell Assay IP (0% NHS)): 0.006 µM; IC50 [4]: 0.148 µM; IC50 [6]: 0.038 µM; IC50 [5]: 2.8 µM
13 | CCN1C(=O)c2c(O)c(=O)c(-c3cn(Cc4ccc(F)cc4F)nn3)cn2[C@@H]2COC[C@@H]21 (single isomer, unassigned) [Compound 15, cis-8-(1-(2,4-Difluorobenzyl)-1H-1,2,3-triazol-4-yl)-4-ethyl-6-hydroxy-3a,4-dihydro-1H-furo[3,4-e]pyrido[1,2-a]pyrazine-5,7(3H,10aH)-dione] | 0.08 |  | 
14 | CCN1C(=O)c2c(O)c(=O)c(-c3cn(Cc4ccc(F)cc4F)nn3)cn2C2COC[C@@H]21 (single isomer, unassigned) [Compound 16] | 0.038 |  | IC50 [3]: 0.038 µM; IC50 (Human immunodeficiency virus 1, NL43, Table B (selected enantiomeric compounds), 100% normal human serum, read-out: Wild Type Cell Assay IP (100% NHS)): 2.7 µM
15 | O=C1N[C@H]2COCC2n2cc(-c3nnc(Cc4ccc(F)cc4F)s3)c(=O)c(O)c21 (stereo in doubt) [Compound 1, cis-8-(5-(2,4-difluorobenzyl)-1,3,4-thiadiazol-2-yl)-6-hydroxy-3a,4-dihydro-1H-furo[3,4-e]pyrido[1,2-a]pyrazine-5,7(3H,10aH)-dione] |  | 0.4 | 
16 | CCN1C(=O)c2c(O)c(=O)c(C(=O)NCc3ccc(F)cc3F)cn2C2COC[C@H]21 (stereo partly shown) [Compound 13] |  | 0.021 | 
